Molecular target: tau (htau40), synthetic filaments (Homo sapiens, UniProt P10636)
Assay: Thioflavin S fluorescence displacement from synthetic htau40 filaments
Format: binding

tau (htau40), synthetic filaments, sequence (P10636 1-441 isoform P10636-8): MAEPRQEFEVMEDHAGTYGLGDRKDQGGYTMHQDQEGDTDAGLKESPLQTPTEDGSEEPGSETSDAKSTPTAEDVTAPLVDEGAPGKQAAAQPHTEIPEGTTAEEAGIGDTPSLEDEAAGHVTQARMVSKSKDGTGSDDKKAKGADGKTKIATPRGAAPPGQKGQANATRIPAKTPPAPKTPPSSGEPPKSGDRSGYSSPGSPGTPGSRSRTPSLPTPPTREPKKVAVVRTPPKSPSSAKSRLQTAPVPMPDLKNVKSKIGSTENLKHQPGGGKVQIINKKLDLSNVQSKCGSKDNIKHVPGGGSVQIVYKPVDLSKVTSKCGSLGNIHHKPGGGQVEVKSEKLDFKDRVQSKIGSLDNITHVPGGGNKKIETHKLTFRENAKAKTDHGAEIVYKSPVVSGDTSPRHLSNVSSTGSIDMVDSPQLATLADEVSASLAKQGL

AC50: 0.036 ± 0.006 µM
SMILES: COc1ccc2nc(/N=N/c3ccc(N(C)C)cc3)sc2c1 [N3, (E)-2-[[4-(dimethylamino)phenyl]azo]-6-methoxybenzothiazole]
